One experiment relates to CD8+ T cells. Nature of the experiment: In vitro T-cell priming assay with aAPCs loaded with peptide/MHC complexes and anti-CD28 antibody, pMHC multimer readout. The format is cell-based, human. Conditions: in vitro immunogenicity; for wells: percentage of positive wells, healthy HLA-A*02 donors (Table 10A); for Wells positive [%]: HLA-A*02 restricted peptides, positive wells among evaluable (Table 10B). The text has this:
In order to obtain information regarding the immunogenicity of the TUMAPs of the present invention, the inventors performed investigations using an in vitro T-cell priming assay based on repeated stimulations of CD8+ T cells with artificial antigen presenting cells (aAPCs) loaded with peptide/MHC complexes and anti-CD28 antibody.
In order to perform in vitro stimulations by artificial antigen presenting cells loaded with peptide-MHC complex (pMHC) and anti-CD28 antibody, the inventors first isolated CD8+ T cells from fresh HLA-A*02 leukapheresis products via positive selection using CD8 microbeads (Miltenyi Biotec, Bergisch-Gladbach, Germany) of healthy donors obtained from the University clinics Mannheim, Germany, after informed consent.
PBMCs and isolated CD8+ lymphocytes were incubated in T-cell medium (TCM) until use consisting of RPMI-Glutamax (Invitrogen, Karlsruhe, Germany) supplemented with 10% heat inactivated human AB serum (PAN-Biotech, Aidenbach, Germany), 100 U/ml Penicillin/100 μg/ml Streptomycin (Cambrex, Cologne, Germany), 1 mM sodium pyruvate (CC Pro, Oberdorla, Germany), 20 μg/ml Gentamycin (Cambrex). 2.5 ng/ml IL-7 (PromoCell, Heidelberg, Germany) and 10 U/ml IL-2 (Novartis Pharma, Nürnberg, Germany) were also added to the TCM at this step.
Generation of pMHC/anti-CD28 coated beads, T-cell stimulations and readout was performed in a highly defined in vitro system using four different pMHC molecules per stimulation condition and 8 different pMHC molecules per readout condition.
The purified co-stimulatory mouse IgG2a anti human CD28 Ab 9.3 (Jung et al., 1987) was chemically biotinylated using Sulfo-N-hydroxysuccinimidobiotin as recommended by the manufacturer (Perbio, Bonn, Germany). Beads used were 5.6 μm diameter streptavidin coated polystyrene particles (Bangs Laboratories, Illinois, USA).
800.000 beads/200 μI were coated in 96-well plates in the presence of 4×12.5 ng different biotin-pMHC, washed and 600 ng biotin anti-CD28 were added subsequently in a volume of 200 μI. Stimulations were initiated in 96-well plates by co-incubating 1×10^6 CD8+ T cells with 2×10^5 washed coated beads in 200 μI TCM supplemented with 5 ng/ml IL-12 (PromoCell) for 3 days at 37° C. Half of the medium was then exchanged by fresh TCM supplemented with 80 U/ml IL-2 and incubating was continued for 4 days at 37° C. This stimulation cycle was performed for a total of three times. For the pMHC multimer readout using 8 different pMHC molecules per condition, a two-dimensional combinatorial coding approach was used as previously described (Andersen et al., 2012) with minor modifications encompassing coupling to 5 different fluorochromes. Finally, multimeric analyses were performed by staining the cells with Live/dead near IR dye (Invitrogen, Karlsruhe, Germany), CD8-FITC antibody clone SK1 (BD, Heidelberg, Germany) and fluorescent pMHC multimers. For analysis, a BD LSRII SORP cytometer equipped with appropriate lasers and filters was used. Peptide specific cells were calculated as percentage of total CD8+ cells. Evaluation of multimeric analysis was done using the FlowJo software (Tree Star, Oregon, USA). In vitro priming of specific multimer+ CD8+ lymphocytes was detected by comparing to negative control stimulations.

For a further experiment, the target named is HLA-A*02:01 (Homo sapiens, UniProt P04439, D140Y/D185E/D98H/E176V/E277Q/G131W/G231S/I119V/I121R/I166T/I218V/L300P/L318F/N151K/N90K/P208A/P217A/Q86G/Q94H/R138H/R169H/T345S). Nature of the experiment: MHC binding assay: UV-ligand exchange with β2m ELISA. Conditions: peptide exchange yield, binding to HLA-A*02:01. The text has this: Candidate peptides for T cell based therapies according to the present invention were further tested for their MHC binding capacity (affinity). The individual peptide-MHC complexes were produced by UV-ligand exchange, where a UV-sensitive peptide is cleaved upon UV-irradiation, and exchanged with the peptide of interest as analyzed. Only peptide candidates that can effectively bind and stabilize the peptide-receptive MHC molecules prevent dissociation of the MHC complexes. To determine the yield of the exchange reaction, an ELISA was performed based on the detection of the light chain (β2m) of stabilized MHC complexes. The assay was performed as generally described in Rodenko et al. (Rodenko et al., 2006).
96 well MAXISorp plates (NUNC) were coated over night with 2 ug/ml streptavidin in PBS at room temperature, washed 4× and blocked for 1 h at 37° C. in 2% BSA containing blocking buffer. Refolded HLA-A*02:01/MLA-001 monomers served as standards, covering the range of 15-500 ng/ml. Peptide-MHC monomers of the UV-exchange reaction were diluted 100 fold in blocking buffer. Samples were incubated for 1 h at 37° C., washed four times, incubated with 2 ug/ml HRP conjugated anti-β2m for 1 h at 37° C., washed again and detected with TMB solution that is stopped with […]. Absorption was measured at 450 nm. Candidate peptides that show a high exchange yield (preferably higher than 50%, most preferred higher than 75%) are generally preferred for a generation and production of antibodies or fragments thereof, and/or T cell receptors or fragments thereof, as they show sufficient avidity to the MHC molecules and prevent dissociation of the MHC complexes.

Take “58 (GVLENIFGV; listed as Homo sapiens) [compound 58]”: the wells result in the experiment with CD8+ T cells was “+ (<20% = +)”. Consider “69 (VLTEFTREV; listed as Homo sapiens) [compound 69]”, for which, in the experiment on CD8+ T cells, the wells entry is listed as “+ (<20% = +)”. “64 (ALYDSVILL; listed as Homo sapiens) [compound 64]”: the wells entry in the experiment on CD8+ T cells is reported as “+ (<20% = +)”. Regarding “2 (VLLDIFTGV; listed as Homo sapiens) [compound 2]”, the Peptide exchange result with HLA-A*02:01 is listed as “++++ (> 75% = ++++)”. Besides, the “Wells positive [%]” value in the experiment with CD8+ T cells was “+++ (50%-69% = +++)”. Turning to “56 (LLLEILHEI; listed as Homo sapiens) [compound 56]”, the wells result in the experiment with CD8+ T cells is “+ (<20% = +)”. On to “6 (SLLSELVEA; listed as Homo sapiens) [compound 6]”, for which the Peptide exchange result with HLA-A*02:01 is “++++ (> 75% = ++++)”. In addition, in the experiment on CD8+ T cells, the “Wells positive [%]” value was “+ (<20% = +)”. As to “3 (GLDGATYTV; listed as Homo sapiens) [compound 3]”, the Peptide exchange result with HLA-A*02:01 is reported as “+++ (>50 = +++)”. Moreover, the “Wells positive [%]” value in the experiment on CD8+ T cells was “++++ (> = 70% = ++++)”. In the case of “10 (AILDVVVNL; listed as Homo sapiens) [compound 10]”, the Peptide exchange entry with HLA-A*02:01 is on record as “++++ (> 75% = ++++)”. Besides, in the experiment on CD8+ T cells, the “Wells positive [%]” value was “+ (<20% = +)”.

With “14 (FLVDSLISA; listed as Homo sapiens) [compound 14]”, the Peptide exchange result with HLA-A*02:01 is “++++ (> 75% = ++++)”. In addition, the “Wells positive [%]” value in the experiment on CD8+ T cells was “++ (20%-49% = ++)”. Turning to “59 (QLLAGVFLA; listed as Homo sapiens) [compound 59]”, the wells entry in the experiment with CD8+ T cells is given as “+ (<20% = +)”. Regarding “9 (SLYPGTETM; listed as Homo sapiens) [compound 9]”, in the experiment with HLA-A*02:01, the Peptide exchange entry is “+++ (>50 = +++)”. Further, in the experiment on CD8+ T cells, the “Wells positive [%]” value is listed as “+ (<20% = +)”. Regarding “1 (KLLDNLHDL; listed as Homo sapiens) [compound 1]”, in the experiment with HLA-A*02:01, the Peptide exchange entry was “++++ (> 75% = ++++)”. Moreover, the “Wells positive [%]” value in the experiment with CD8+ T cells was “+ (<20% = +)”. Consider “7 (SILSLLIKL; listed as Homo sapiens) [compound 7]”, for which the Peptide exchange entry with HLA-A*02:01 is recorded as “++ (>20% = ++)”. For the same substance, the “Wells positive [%]” value with CD8+ T cells is “++ (20%-49% = ++)”. As to “57 (ALADLTGTVV; listed as Homo sapiens) [compound 57]”, in the experiment with CD8+ T cells, the wells result is given as “+ (<20% = +)”. Regarding “23 (GLGPNLVGV; listed as Homo sapiens) [compound 23]”, in the experiment with HLA-A*02:01, the Peptide exchange result is listed as “++++ (> 75% = ++++)”. Also, the “Wells positive [%]” value in the experiment on CD8+ T cells is listed as “++++ (> = 70% = ++++)”.

As for “20 (ALLGFVTDL; listed as Homo sapiens) [compound 20]”, the Peptide exchange entry in the experiment with HLA-A*02:01 is on record as “++++ (> 75% = ++++)”. The “Wells positive [%]” value in the experiment with CD8+ T cells is listed as “++ (20%-49% = ++)”.

Regarding “62 (SLWGGDVVL; listed as Homo sapiens) [compound 62]”, the wells result in the experiment on CD8+ T cells is recorded as “++ (20%-49% = ++)”.
